Measurements taken from US20250059231A1, “Protease inhibitors” (priority 2021, published 2025).
Where a SMILES comes first, the peptide text is derived from it. The star is where a group is joined. Palmitoyl = CCCCCCCCCCCCCCCC(=O)*

What was measured:
[1] = system: Dengue virus 2 (DENV2, ATCC VR-1584); assay: DENV2 infection in AG129 mice: clinical signs, body and spleen weights; format: in vivo; details: for Body weights of mice at the end of the study (Mean ± SD): b.i.d, n = 9; for general clinical signs of treated animals: 20 and 10 mg/kg
Protocol: The purpose of this study was to determine the efficacy of the compounds on Dengue virus 2 (DENV2, ATCC® VR-1584™) infection in AG129 mice.
Six groups of AG129 mice, 6-8 weeks old, with 9 mice per group were used to test compounds according to table 3.1.1. Animal room environment was monitored for temperature and relative humidity twice per day. The temperature range was 22° C.±3° C. and humidity range was 30-70%. The animals were provided with 12 hours light and 12 hours darkness. Feed and drinking water was provided ad libitum. Compounds 43 and 113 were tested.
C6/36 (ATCC(CRL-1660) cell lines were grown in RPMI 1640 medium (Gibco/HiMedia) plus 5% fetal bovine serum at 28° C. Dengue virus type 2 (ATCC®VR-1584™) New Guinea C(NGC, DENV2) was passaged in BHK-21 cell cultures to make sufficient stocks for assay. Virus titer was determined by TCID50 method using BHK-21 cells.
Twenty-four hours post treatment (Day 0), animals were injected intraperitoneally (IP) with 0.2 ml of virus suspension (˜5×10^7/animal).
The vehicle for tested compounds was 5% DMSO+95% (20%) hydroxypropylcyclodextrin. […] Formulations were prepared daily immediately before dosing.
(§1) Administration of compounds and vehicle to animals started twenty four hours before infection (Day −1). Animals were treated daily (From Day-1 to day 4) as per the experimental design shown below in table 3.1.5. Animals were monitored for general clinical signs, morbidity and mortality. Body weights were measured daily.
Animals were sacrificed on day 5 post infection with Isoflurane followed by an overdose of CO2. Spleens were excised, measured and weighed.
(§2) The Mean±SD Log10PFU/ml, relative Mean±SD spleen weight, Mean±SD biomarker concentrations were estimated in each group. Significant differences between group means and control were analyzed by one-way ANOVA, followed by a Dunnett's multiple comparison test, using GraphPad Prism 5 at 95% confidence levels. A p value of <0.05 was considered as significant.

ZIKA protease = target: T1, ZIKA protease (Zika virus, UniProt Q32ZE1); assay: biochemical; details: for inhibition at 1 µM / inhibition at 50 µM: read-out: inhibition of ZIKV
T1 construct: a trypsin-like serine protease domain in the N-terminal region of the flaviviral NS3 proteins

TNF alpha = assay: DENV2 infection in AG129 mice: plasma TNF alpha (ELISA); format: in vivo; details: 10 mg/kg I.P, b.i.d; n = 9; vs vehicle control
Protocol: as §1
Cytokine levels (TNF alpha, IL-6 and IL-12) in plasma samples were measured using Enzyme-Linked Immunosorbent Assay (ELISA). Mouse TNF alpha ELISA Kit (Abcam: ab208348), Mouse IL-6 ELISA Kit (Abcam: ab100712), and Mouse IL-12 p40+IL-12 p70 ELISA Kit (Abcam: ab100699) were used to estimate TNF alpha, IL-6 and IL-12, respectively. The assays were performed according to the manufacturer's instructions and was analysed on a TECAN-NanoQuant Plate™ system.
as §2

DENV protease = target: T2, DENV protease (Dengue virus type 2, UniProt P29990); assay: biochemical; details: for inhibition at 50 µM: read-out: inhibition of DENV
T2 construct: The virus-encoded dengue protease comprises the amino-terminal 180 amino acids of NS3 (NS3pro) of the polyprotein
Outline: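 DENV protease (100 nM) was pre-incubated 15 min with inhibitors in 50 mM Tris-HCl pH 9.0, 10% ethylene glycol, 0.0016% Brij 58. FRET substrate (50 μM final) started the reaction, monitored 15 min as RFU/s slope. IC50 came from triplicate means versus concentration.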

[2] = parameters: species or system mice; details: mouse, in vivo
Text: FIG. 5A-multidose PK-profiles of compound 113 in mice after intravenous (IV), intraperitoneal (IP) and subcutaneous (SC) administration to mice (dosed twice per day for 5 days, mean of 3 mice per group).
FIG. 5D-multidose PK-profiles of compound 43 in mice after intravenous (IV), intraperitoneal (IP) and subcutaneous (SC) administration to mice (dosed twice per day for 5 days, mean of 3 mice per group).
Similar data was obtained with compound 43 (FIG. 5D)

T2 sequence (P29990 1398-1437): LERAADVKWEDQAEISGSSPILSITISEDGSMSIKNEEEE
T2 sequence (P29990 1476-1653): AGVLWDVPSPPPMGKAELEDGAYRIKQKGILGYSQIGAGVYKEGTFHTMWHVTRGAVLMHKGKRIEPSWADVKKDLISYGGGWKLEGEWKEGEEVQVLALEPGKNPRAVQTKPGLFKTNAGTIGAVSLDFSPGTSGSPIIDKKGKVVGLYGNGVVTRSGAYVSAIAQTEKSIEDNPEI
T1 sequence (Q32ZE1 1499-1676): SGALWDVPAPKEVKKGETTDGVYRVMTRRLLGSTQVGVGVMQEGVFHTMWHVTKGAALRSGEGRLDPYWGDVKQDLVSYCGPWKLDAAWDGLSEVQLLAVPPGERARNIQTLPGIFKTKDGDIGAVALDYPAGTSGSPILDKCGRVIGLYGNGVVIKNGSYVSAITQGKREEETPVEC
T1 sequence (Q32ZE1 1421-1460): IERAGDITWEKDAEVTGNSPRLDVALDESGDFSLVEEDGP

CCCCCCCCCCCCCCCC(=O)N[C@@H](CCCCN)CC(=O)N[C@@H](C)C(=O)N[C@@H](C)CC(=O)N[C@H](CCCCN)C(N)=O (stereo in doubt) [compound 113]
Body weights of mice at the end of the study (Mean ± SD) ([1]; 10 mg/kg I.P): 17.22 ± 1.39 g | Body weights of mice at the end of the study (Mean ± SD) ([1]; 20 mg/kg I.P): 16.89 ± 1.36 g | general clinical signs of treated animals [1]: apparently normal | EC50 (West Nile virus): ≤ 25 µM | IC50 (ZIKA protease): ≤ 25 µM | inhibition at 1 µM (ZIKA protease): ≥ 10% | inhibition at 50 µM (ZIKA protease): ≥ 65% | Plasma concentration of TNF-alpha in mouse plasma after treatment (TNF alpha): 25.99 ± 9.19 | inhibition at 50 µM (DENV protease): ≥ 25% | inhibition of DENV protease (in words) (DENV protease; biochemical and cellular infection assays): potent and specific inhibition | pharmacokinetic profiles [2]: reliable pharmacokinetic profiles with limited inter animal variability and dose proportionality | elimination in blood plasma ([2]; sc): slow elimination | pharmacokinetic behaviour when administered subcutaneously ([2]; sc): improved pharmacokinetic behaviour

CCCCCCCCCCCCCCCC(=O)N[C@@H](CCCNC(=N)N)C(=O)N[C@@H](CCC(N)=O)C(=O)N[C@@H](Cc1ccccc1)C(N)=O [compound 43] (Palmitoyl-Arg-Gln-Phe-NH2)
Body weights of mice at the end of the study (Mean ± SD) ([1]; 10 mg/kg I.P): 18.78 ± 2.28 g | Body weights of mice at the end of the study (Mean ± SD) ([1]; 20 mg/kg I.P): 18.11 ± 1.45 g | general clinical signs of treated animals [1]: apparently normal | EC50 (West Nile virus): ≤ 25 µM | IC50 (ZIKA protease): ≤ 25 µM | inhibition at 1 µM (ZIKA protease): ≥ 10% | inhibition at 50 µM (ZIKA protease): ≥ 65% | Plasma concentration of TNF-alpha in mouse plasma after treatment (TNF alpha): 32.45 ± 12.30 | inhibition at 50 µM (DENV protease): ≥ 25% | pharmacokinetic behaviour when administered subcutaneously ([2]; sc): improved pharmacokinetic behaviour
